Laboratory results reported in PMC4041848, “Differential Effects of Omeprazole and Lansoprazole Enantiomers on Aryl Hydrocarbon Receptor in Human Hepatocytes and Cell Lines” (PLoS ONE, 2014).
Where two headings read alike, the source gives them in different places.

What was measured:
[1] = system: AZ-AHR cells; test: MTT cytotoxicity test in AZ-AHR reporter cells; conditions: for cytotoxicity: AZ-AHR cells, 24 h, MTT, concentrations up to 250 µM
Procedure: (§1) A stably transfected gene reporter cell line AZ-AHR, derived from human hepatoma HepG2 cells transfected with a construct containing several AhR binding sites upstream of a luciferase reporter gene, was used for assessment of AhR transcriptional activity. Cells were incubated for 24 h with tested compounds and/or vehicle (DMSO; 0.1% v/v), in the presence or absence of TCDD (10 nM; AZ-AHR cells) or DEX (100 nM; AZ-GR cells). After the treatments, cells were lysed and luciferase activity was measured. In parallel, cell viability was determined by conventional MTT test.
(§2) In the first series of experiments, the cytotoxicity of tested compounds was assessed in gene reporter cell line AZ-AHR. For this purpose, the cells were incubated for 24 h with S-OME, R-OME, rac-OME, S-LAN, R-LAN and rac-LAN at concentration ranging from 100 pM to 250 µM. The vehicle was DMSO (0.1% v/v). After the treatment, a conventional MTT test was performed.
(§3) Figure 1 Effect of omeprazole and lansoprazole enantiomers on transcriptional activity of aryl hydrocarbon receptor AhR in human gene reporter cell line AZ-AHR. The cells were seeded in 96-well plates and stabilized for 16 h. Panels A and B: Cells were incubated for 24 h with S-OME, R-OME, rac-OME, S-LAN, R-LAN and rac-LAN at concentrations ranging from 10^−10 M to 10^−4 M. The vehicle was DMSO (0.1% v/v). After the treatment, MTT test was performed and absorbance was measured at 540 nm. Treatments were performed in triplicates. The data are the mean from experiments from six different passages of cells and are expressed as a percentage of viability of control cells. The values of IC50 were calculated and are indicated in a figure. Panels C - F: AZ-AHR cells were incubated for 24 h with S-OME, R-OME, rac-OME, S-LAN, R-LAN and rac-LAN at concentrations ranging from 10^−10 M to 10^−4 M in the absence (Panels C and D - agonist mode) or in the presence (Panels E and F- antagonist mode) of TCDD (5 nM). The vehicle was DMSO (0.1% v/v). After the treatments, cells were lysed and luciferase activity was measured. Treatments were performed in triplicates in five (agonist mode) or four (antagonist mode) independent cell passages. […] Data are expressed as a fold induction of luciferase activity over control cells (Panels C and D - agonist mode) or as a percentage of maximal induction attained by TCDD (Panels E and F- antagonist mode).

[2] = system: aryl hydrocarbon receptor AhR; test: AhR gene reporter assay, antagonist mode (with TCDD); conditions: read-out: AhR antagonist IC50; AZ-AHR cells, 24 h, in the presence of TCDD (5 nM), average of four passages
Procedure: as §1
Figure 1 Effect of omeprazole and lansoprazole enantiomers on transcriptional activity of aryl hydrocarbon receptor AhR in human gene reporter cell line AZ-AHR. The cells were seeded in 96-well plates and stabilized for 16 h. […] After the treatment, MTT test was performed and absorbance was measured at 540 nm. […] The data are the mean from experiments from six different passages of cells and are expressed as a percentage of viability of control cells. The values of IC50 were calculated and are indicated in a figure. […] After the treatments, cells were lysed and luciferase activity was measured. […] Data are expressed as a fold induction of luciferase activity over control cells (Panels C and D - agonist mode) or as a percentage of maximal induction attained by TCDD (Panels E and F- antagonist mode). […]

[3] = system: aryl hydrocarbon receptor AhR; test: AhR gene reporter assay, agonist mode; conditions: for EC50 at 24 h: human
Procedure: as §1, §3
Gene reporter assays were performed in two different experimental layouts. […] In antagonist mode, cells were incubated with increasing concentrations of tested compounds in combination with model agonist (TCDD; 5 nM), and half-maximal inhibitory concentrations (IC50) were calculated. […] The efficacy was calculated at concentration of compounds of 100 µM and compared to 5 nM TCDD (Figure 1C).

[4] = system: CYP1A2 mRNA; test: CYP1A2 mRNA induction in primary human hepatocytes (qRT-PCR); conditions: hepatocyte culture HH52, 24 h, 100 µM
Text: (§4) Primary human hepatocytes used in this study were obtained from two sources: (i) from multiorgan donor HH52; the use of liver cells of donor HH52 was approved by “Ethical committee at the Faculty Hospital Olomouc”,and it was in accordance with Transplantation law #285/2002 Sb; “Ethical committee at the Faculty Hospital Olomouc” waived the authors from obtaining consent from the next of kin, regarding human hepatocytes obtained from liver donor HH52. (ii) long-term human hepatocytes in monolayer Batch HEP220770 (person), Batch HEP220774 (person) were purchased from Biopredic International (Biopredic International, Rennes, France). Cells were cultured in serum-free medium. Cultures were maintained at 37°C and 5% CO2 in a humidified incubator.
Total RNA was isolated using TRI Reagent (Molecular Research Center, Cincinnati, OH, USA). cDNA was synthesized from 1000 ng of total RNA using M-MLV Reverse Transcriptase (Finnzymes, Espoo, Finland) at 42°C for 60 min in the presence of random hexamers (Takara, Shiga, Japan). qRT-PCR was carried out using LightCycler FastStart DNA MasterPLUS SYBR Green I (Roche Diagnostic Corporation, Prague, Czech Republic) on a Light Cycler 480 II apparatus (Roche Diagnostic Corporation). CYP1A1, CYP1A2 and GAPDH mRNAs were determined as described previously. Measurements were performed in triplicates. […]

[5] = MTT cytotoxicity test in AZ-AHR reporter cells; conditions: human
Procedure: as §1, §2, §3

[6] = system: CYP1A1 mRNA; test: CYP1A1 mRNA induction in primary human hepatocytes (qRT-PCR); conditions: hepatocyte culture Hep220770, 24 h
Text: as §4
(§5) Total RNA was isolated using TRI Reagent (Molecular Research Center, Cincinnati, OH, USA). cDNA was synthesized from 1000 ng of total RNA using M-MLV Reverse Transcriptase (Finnzymes, Espoo, Finland) at 42°C for 60 min in the presence of random hexamers (Takara, Shiga, Japan). qRT-PCR was carried out using LightCycler FastStart DNA MasterPLUS SYBR Green I (Roche Diagnostic Corporation, Prague, Czech Republic) on a Light Cycler 480 II apparatus (Roche Diagnostic Corporation). CYP1A1, CYP1A2 and GAPDH mRNAs were determined as described previously. Measurements were performed in triplicates. Gene expression was normalized to GAPDH as a housekeeping gene.
We examined a capability of omeprazole and lansoprazole to induce CYP1A1 and CYP1A2 mRNA and protein in primary human hepatocytes, which is a more physiological and metabolically competent cell model. Human hepatocytes were treated for 24 h or 48 h with TCDD (5 nM), vehicle (DMSO; 0.1% V/V) and tested compounds.
Figure 3 Effects of omeprazole and lansoprazole enantiomers on CYP1A1 mRNA, protein and EROD activity in primary human hepatocytes. Panel A and Panel B: RT-PCR analyses of CYP1A1 and CYP1A2 mRNA and western blots of CYP1A1 and CYP1A2 from two different cultures (HH52 and Hep220770) are shown. Human hepatocytes were incubated for 24 h (mRNA analysis) or 48 (protein analysis) with S-OME, R-OME, rac-OME, S-LAN, R-LAN, rac-LAN, TCDD and vehicle (DMSO; 0.1% v/v). RT-PCR data are the mean ± SD from triplicate measurements and are expressed as fold induction over vehicle-treated cells. Data were normalized to GAPDH mRNA levels. Density of bands in western blots was quantified by densitometry and the values are indicated along with respective blots. Panel C: EROD and cytotoxicity: Human hepatocytes (culture Hep220774) were treated for 24 h with S-OME, R-OME, rac-OME, S-LAN, R-LAN, rac-LAN, TCDD and vehicle (DMSO; 0.1% v/v). Upper bar graph: An activity of 7-ethoxyresorufin- O-deethylase (EROD) was measured by fluorescent spectrophotometry with 530 nm excitation and 590 nm emission filters. Treatments were performed in triplicates. The data are expressed as fold induction over the value from control cells. Lower bar graph: A conventional MTT test was performed and absorbance was measured at 540 nm. Treatments were performed in triplicates. The data are expressed as percentage of viability of control cells.

[7] = system: CYP1A2 protein; test: CYP1A2 protein induction in primary human hepatocytes (western blot); conditions: hepatocyte culture HH52, 48 h, 10 µM
Text: as §4
Total protein extracts were prepared from cells cultured on 6-well plates. Cells were washed twice with ice-cold PBS and scraped into 1 ml of PBS. The suspension was centrifuged (4500 RPM/5 min/4°C) and the pellet was resuspended in 150 µl of ice-cold lysis buffer (150 mM NaCl; 10 mM Tris pH 7.2; 0.1% (w/v) SDS; anti-protease cocktail, 1% (v/v) Triton X-100; anti-phosphatase cocktail, 1% (v/v) sodium deoxycholate; 5 mM EDTA). […] Supernatant was collected and the protein content was determined by the Bradford reagent. […] The density of bands was measured by densitometry. […]
Figure 3 Effects of omeprazole and lansoprazole enantiomers on CYP1A1 mRNA, protein and EROD activity in primary human hepatocytes. […] RT-PCR data are the mean ± SD from triplicate measurements and are expressed as fold induction over vehicle-treated cells. […] Density of bands in western blots was quantified by densitometry and the values are indicated along with respective blots. […] Upper bar graph: An activity of 7-ethoxyresorufin- O-deethylase (EROD) was measured by fluorescent spectrophotometry with 530 nm excitation and 590 nm emission filters. […] The data are expressed as fold induction over the value from control cells. Lower bar graph: A conventional MTT test was performed and absorbance was measured at 540 nm. […] The data are expressed as percentage of viability of control cells.

[8] = system: primary human hepatocytes; test: MTT cytotoxicity test in primary human hepatocytes; conditions: 100 µM
Procedure: Figure 3 Effects of omeprazole and lansoprazole enantiomers on CYP1A1 mRNA, protein and EROD activity in primary human hepatocytes. Panel A and Panel B: RT-PCR analyses of CYP1A1 and CYP1A2 mRNA and western blots of CYP1A1 and CYP1A2 from two different cultures (HH52 and Hep220770) are shown. Human hepatocytes were incubated for 24 h (mRNA analysis) or 48 (protein analysis) with S-OME, R-OME, rac-OME, S-LAN, R-LAN, rac-LAN, TCDD and vehicle (DMSO; 0.1% v/v). RT-PCR data are the mean ± SD from triplicate measurements and are expressed as fold induction over vehicle-treated cells. Data were normalized to GAPDH mRNA levels. Density of bands in western blots was quantified by densitometry and the values are indicated along with respective blots. Panel C: EROD and cytotoxicity: Human hepatocytes (culture Hep220774) were treated for 24 h with S-OME, R-OME, rac-OME, S-LAN, R-LAN, rac-LAN, TCDD and vehicle (DMSO; 0.1% v/v). Upper bar graph: An activity of 7-ethoxyresorufin- O-deethylase (EROD) was measured by fluorescent spectrophotometry with 530 nm excitation and 590 nm emission filters. Treatments were performed in triplicates. The data are expressed as fold induction over the value from control cells. Lower bar graph: A conventional MTT test was performed and absorbance was measured at 540 nm. […] The data are expressed as percentage of viability of control cells. […]

[9] = system: CYP1A1 mRNA; conditions: HepG2, 24 h, 250 µM
Procedure: as §5
Treatments were performed in triplicates.

[10] = system: CYP1A1 protein; test: CYP1A1 protein induction in primary human hepatocytes (western blot); conditions: hepatocyte culture Hep220770, 48 h, 100 µM
Text: Primary human hepatocytes used in this study were obtained from two sources: (i) from multiorgan donor HH52; the use of liver cells of donor HH52 was approved by “Ethical committee at the Faculty Hospital Olomouc”,and it was in accordance with Transplantation law #285/2002 Sb; “Ethical committee at the Faculty Hospital Olomouc” waived the authors from obtaining consent from the next of kin, regarding human hepatocytes obtained from liver donor HH52. (ii) long-term human hepatocytes in monolayer Batch HEP220770 (person), Batch HEP220774 (person) were purchased from Biopredic International (Biopredic International, Rennes, France). Cells were cultured in serum-free medium. […]
Total protein extracts were prepared from cells cultured on 6-well plates. […] Supernatant was collected and the protein content was determined by the Bradford reagent. […] The density of bands was measured by densitometry. […]
Figure 3 Effects of omeprazole and lansoprazole enantiomers on CYP1A1 mRNA, protein and EROD activity in primary human hepatocytes. […] RT-PCR data are the mean ± SD from triplicate measurements and are expressed as fold induction over vehicle-treated cells. […] Density of bands in western blots was quantified by densitometry and the values are indicated along with respective blots. […] The data are expressed as fold induction over the value from control cells. […]

[11] = AZ-AHR cells, 24 h, compared to 5 nM TCDD, calculated at 100 µM compound (stated for omeprazole)

Compound	cytotoxicity [1]	IC50 at 24 h [5]	AhR agonist efficacy [3, 11]	EC50 at 24 h [3]	CYP1A1 mRNA induction ([6]; 100 µM)	also measured
COc1ccc2nc([S@+]([O-])Cc3ncc(C)c(OC)c3C)[nH]c2c1 [R-OME, R-omeprazole]	not cytotoxic					IC50 [2]: 54.8 ± 25.9 µM; AhR agonist efficacy [3]: 48.6±26.8%; EC50 ([3]; read-out: AhR agonist EC50, AZ-AHR cells, 24 h, luciferase, average of five passages): 35.1 ± 3.7 µM; CYP1A2 mRNA induction [4]: 71 % of TCDD induction
Cc1c(OCC(F)(F)F)ccnc1C[S+]([O-])c1nc2ccccc2[nH]1 (racemic) [rac-LAN, rac-lansoprazole]		> 250 µM	22.8±5.6%	2.4 ± 0.1 µM	358 fold	
Cc1c(OCC(F)(F)F)ccnc1C[S@+]([O-])c1nc2ccccc2[nH]1 [S-LAN, S-lansoprazole]			26.3±8.7%			IC50 [1]: 169 µM; EC50 [3]: 1.9 ± 0.3 µM; CYP1A2 protein induction [7]: strong induction; viability of the cells [8]: 64%
COc1ccc2[nH]c([S+]([O-])Cc3ncc(C)c(OC)c3C)nc2c1 (racemic) [rac-OME, rac-omeprazole]	not cytotoxic	> 250 µM	51.4±30.4%	30.1 ± 2.2 µM	740 fold	CYP1A1 mRNA induction ([6]; 250 µM): 706 fold; CYP1A1 mRNA induction [9]: approximately 180 fold; CYP1A1 protein induction [10]: strong induction
